Measurements published in PubChem BioAssay (NCI).
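These data come from cells grown in 96-well plates and exposed to compound for 48 hours at five concentrations. GI50 = concentration required for 50% inhibition of growth. TGI denotes the concentration required for complete inhibition of growth.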

How the values were obtained:
Experiment in all cases: inhibition of tumour cell growth, NCI panel, 48 h
HOP-62 NSCLC = test system: HOP-62 NSCLC
SF-268 CNS = test system: SF-268 CNS
NCI/ADR-RES ovarian = test system: NCI/ADR-RES ovarian
HT29 colon = test system: HT29 colon
SK-OV-3 ovarian = test system: SK-OV-3 ovarian
UACC-62 melanoma = test system: UACC-62 melanoma
SK-MEL-5 melanoma = test system: SK-MEL-5 melanoma
UO-31 renal = test system: UO-31 renal
HOP-92 NSCLC = test system: HOP-92 NSCLC
MDA-MB-435 = test system: MDA-MB-435
COLO 205 colon = test system: COLO 205 colon
SN12C renal = test system: SN12C renal
IGROV1 ovarian = test system: IGROV1 ovarian
U251 CNS = test system: U251 CNS
DU-145 prostate = test system: DU-145 prostate
SR leukemia = test system: SR leukemia
SNB-19 CNS = test system: SNB-19 CNS
OVCAR-5 ovarian = test system: OVCAR-5 ovarian
HL-60(TB) leukemia = test system: HL-60(TB) leukemia
NCI-H226 lung = test system: NCI-H226 lung
CCRF-CEM leukemia = test system: CCRF-CEM leukemia
SF-539 CNS = test system: SF-539 CNS
K-562 leukemia = test system: K-562 leukemia
OVCAR-4 ovarian = test system: OVCAR-4 ovarian
786-0 renal = test system: 786-0 renal
SW-620 colon = test system: SW-620 colon
SF-295 CNS = test system: SF-295 CNS
TK-10 renal = test system: TK-10 renal
OVCAR-3 ovarian = test system: OVCAR-3 ovarian
KM12 colon = test system: KM12 colon
HCT-15 colon = test system: HCT-15 colon
HS 578T breast = test system: HS 578T breast
EKVX NSCLC = test system: EKVX NSCLC
A498 renal = test system: A498 renal
ACHN renal = test system: ACHN renal
MCF7 breast = test system: MCF7 breast
UACC-257 melanoma = test system: UACC-257 melanoma
MDA-MB-231 breast = test system: MDA-MB-231 breast
NCI-H460 lung = test system: NCI-H460 lung
SNB-75 CNS = test system: SNB-75 CNS
MALME-3M melanoma = test system: MALME-3M melanoma
SK-MEL-2 melanoma = test system: SK-MEL-2 melanoma
NCI-H522 lung = test system: NCI-H522 lung
T-47D breast = test system: T-47D breast
NCI-H23 lung = test system: NCI-H23 lung
CAKI-1 renal = test system: CAKI-1 renal
LOX IMVI melanoma = test system: LOX IMVI melanoma
SK-MEL-28 melanoma = test system: SK-MEL-28 melanoma
A549 NSCLC = test system: A549 NSCLC
BT-549 breast = test system: BT-549 breast
PC-3 prostate = test system: PC-3 prostate
OVCAR-8 ovarian = test system: OVCAR-8 ovarian
HCT-116 colon = test system: HCT-116 colon
M14 melanoma = test system: M14 melanoma
MOLT-4 leukemia = test system: MOLT-4 leukemia
RXF 393 renal = test system: RXF 393 renal
HCC-2998 colon = test system: HCC-2998 colon
RPMI-8226 leukemia = test system: RPMI-8226 leukemia

## COc1ccc(-c2cc(-c3ccccc3)nc(NCCNc3ccnc4cc(Cl)ccc34)n2)cc1
HOP-62 NSCLC
  GI50: 1.87 µM
  TGI: 3.7 µM
SF-268 CNS
  GI50: 1.78 µM
  TGI: 3.62 µM
NCI/ADR-RES ovarian
  GI50: 1.71 µM
  TGI: 3.79 µM
HT29 colon
  GI50: 1.72 µM
  TGI: 3.43 µM
SK-OV-3 ovarian
  GI50: 1.78 µM
  TGI: 3.34 µM
UACC-62 melanoma
  GI50: 1.84 µM
  TGI: 3.52 µM
SK-MEL-5 melanoma
  GI50: 1.79 µM
  TGI: 3.3 µM
UO-31 renal
  GI50: 1.42 µM
  TGI: 2.93 µM
HOP-92 NSCLC
  GI50: 1.17 µM
  TGI: 2.57 µM
MDA-MB-435
  GI50: 1.47 µM
  TGI: 3.01 µM
COLO 205 colon
  GI50: 1.84 µM
  TGI: 3.83 µM
SN12C renal
  GI50: 1.61 µM
  TGI: 3.3 µM
IGROV1 ovarian
  GI50: 1.46 µM
  TGI: 3.18 µM
U251 CNS
  GI50: 1.75 µM
  TGI: 3.38 µM
DU-145 prostate
  GI50: 1.77 µM
  TGI: 3.28 µM
SR leukemia
  GI50: 0.435 µM
  TGI: > 100 µM
SNB-19 CNS
  GI50: 1.77 µM
  TGI: 3.68 µM
OVCAR-5 ovarian
  GI50: 1.76 µM
  TGI: 3.3 µM
HL-60(TB) leukemia
  GI50: 1.72 µM
  TGI: 3.62 µM
NCI-H226 lung
  GI50: 1.96 µM
  TGI: 4.56 µM
CCRF-CEM leukemia
  GI50: 0.306 µM
  TGI: 1.21 µM
SF-539 CNS
  GI50: 1.86 µM
  TGI: 3.33 µM
K-562 leukemia
  GI50: 0.323 µM
  TGI: 1.03 µM
OVCAR-4 ovarian
  GI50: 1.93 µM
  TGI: 3.71 µM
786-0 renal
  GI50: 1.72 µM
  TGI: 3.35 µM
SW-620 colon
  GI50: 1.32 µM
  TGI: 2.99 µM
SF-295 CNS
  GI50: 1.8 µM
  TGI: 3.49 µM
TK-10 renal
  GI50: 1.82 µM
  TGI: 3.44 µM
OVCAR-3 ovarian
  GI50: 1.82 µM
  TGI: 3.39 µM
KM12 colon
  GI50: 1.84 µM
  TGI: 3.52 µM
HCT-15 colon
  GI50: 0.591 µM
  TGI: 2.09 µM
HS 578T breast
  GI50: 1.81 µM
  TGI: 3.78 µM
EKVX NSCLC
  GI50: 1.79 µM
  TGI: 3.59 µM
A498 renal
  GI50: 1.63 µM
  TGI: 3.16 µM
ACHN renal
  GI50: 1.7 µM
  TGI: 3.16 µM
MCF7 breast
  GI50: 1.53 µM
  TGI: 3.42 µM
UACC-257 melanoma
  GI50: 1.92 µM
  TGI: 3.93 µM
MDA-MB-231 breast
  GI50: 1.81 µM
  TGI: 3.49 µM
NCI-H460 lung
  GI50: 1.92 µM
  TGI: 3.72 µM
SNB-75 CNS
  GI50: 1.6 µM
  TGI: 3.05 µM
MALME-3M melanoma
  GI50: 1.7 µM
  TGI: 3.42 µM
SK-MEL-2 melanoma
  GI50: 1.84 µM
  TGI: 3.43 µM
NCI-H522 lung
  GI50: 1.87 µM
  TGI: 3.8 µM
T-47D breast
  GI50: 0.812 µM
  TGI: 2.61 µM
NCI-H23 lung
  GI50: 1.84 µM
  TGI: 3.7 µM
CAKI-1 renal
  GI50: 1.57 µM
  TGI: 2.96 µM
LOX IMVI melanoma
  GI50: 1.55 µM
  TGI: 3.26 µM
SK-MEL-28 melanoma
  GI50: 1.73 µM
  TGI: 3.35 µM
A549 NSCLC
  GI50: 1.82 µM
  TGI: 3.55 µM

## COc1ccc(/C(C)=C(\c2ccc(Cl)cc2)c2ccc(OCCN3CCCCCC3)cc2)cc1F
HOP-62 NSCLC
  GI50: 3.33 µM
  TGI: 6.72 µM
SF-268 CNS
  GI50: 6.42 µM
  TGI: > 16.7 µM
NCI/ADR-RES ovarian
  GI50: 4 µM
  TGI: 12.4 µM
HT29 colon
  GI50: 0.611 µM
  TGI: > 16.7 µM
SK-OV-3 ovarian
  GI50: 5.05 µM
  TGI: 16.6 µM
UACC-62 melanoma
  GI50: 3.52 µM
  TGI: 8.02 µM
BT-549 breast
  GI50: 2.79 µM
  TGI: 6.74 µM
SK-MEL-5 melanoma
  GI50: 2.89 µM
  TGI: 5.27 µM
UO-31 renal
  GI50: 2.17 µM
  TGI: 4.47 µM
HOP-92 NSCLC
  GI50: 2.57 µM
  TGI: 6.62 µM
MDA-MB-435
  GI50: 2.78 µM
  TGI: 5.77 µM
COLO 205 colon
  GI50: 1.62 µM
  TGI: 7.47 µM
SN12C renal
  GI50: 2.96 µM
  TGI: 8.3 µM
IGROV1 ovarian
  GI50: 3.07 µM
  TGI: 9.34 µM
U251 CNS
  GI50: 2.79 µM
  TGI: 7.59 µM
DU-145 prostate
  GI50: 4.47 µM
  TGI: 15.6 µM
SR leukemia
  GI50: 2.26 µM
  TGI: 12.3 µM
SNB-19 CNS
  GI50: 5.13 µM
  TGI: > 16.7 µM
OVCAR-5 ovarian
  GI50: 2.95 µM
  TGI: 8.18 µM
HL-60(TB) leukemia
  GI50: 3.25 µM
  TGI: 7.11 µM
NCI-H226 lung
  GI50: 5.47 µM
  TGI: > 16.7 µM
CCRF-CEM leukemia
  GI50: 4.51 µM
  TGI: > 16.7 µM
SF-539 CNS
  GI50: 2.18 µM
  TGI: 4.39 µM
PC-3 prostate
  GI50: 3.8 µM
  TGI: 15 µM
K-562 leukemia
  GI50: 0.828 µM
  TGI: 16.4 µM
OVCAR-4 ovarian
  GI50: 2.63 µM
  TGI: 8.09 µM
OVCAR-8 ovarian
  GI50: 5.09 µM
  TGI: > 16.7 µM
HCT-116 colon
  GI50: 1.98 µM
  TGI: 4.51 µM
786-0 renal
  GI50: 2.56 µM
  TGI: 5.11 µM
SW-620 colon
  GI50: 2.14 µM
  TGI: 4.81 µM
SF-295 CNS
  GI50: 2.69 µM
  TGI: 5.61 µM
TK-10 renal
  GI50: 4.28 µM
  TGI: 14 µM
OVCAR-3 ovarian
  GI50: 2.98 µM
  TGI: 5.89 µM
M14 melanoma
  GI50: 2.74 µM
  TGI: 7.18 µM
KM12 colon
  GI50: 1.7 µM
  TGI: 7.04 µM
HCT-15 colon
  GI50: 0.668 µM
  TGI: 2.85 µM
HS 578T breast
  GI50: 2.69 µM
  TGI: 6.51 µM
EKVX NSCLC
  GI50: 5.54 µM
  TGI: > 16.7 µM
ACHN renal
  GI50: 5.19 µM
  TGI: > 16.7 µM
MCF7 breast
  GI50: 3.59 µM
  TGI: 11.1 µM
UACC-257 melanoma
  GI50: 3.4 µM
  TGI: 7.87 µM
MDA-MB-231 breast
  GI50: 3.29 µM
  TGI: 6.11 µM
NCI-H460 lung
  GI50: 2.56 µM
  TGI: 5.4 µM
MOLT-4 leukemia
  GI50: 3.91 µM
  TGI: 11.8 µM
SNB-75 CNS
  GI50: 4.16 µM
  TGI: 13.3 µM
RXF 393 renal
  GI50: 2.55 µM
  TGI: 5.17 µM
HCC-2998 colon
  GI50: 3.81 µM
  TGI: 9.38 µM
MALME-3M melanoma
  GI50: 2.25 µM
  TGI: 4.72 µM
SK-MEL-2 melanoma
  GI50: 5.23 µM
  TGI: 16.3 µM
NCI-H522 lung
  GI50: 3.92 µM
  TGI: 9.71 µM
T-47D breast
  GI50: 3.47 µM
  TGI: 15.1 µM
NCI-H23 lung
  GI50: 3.07 µM
  TGI: 10.4 µM
RPMI-8226 leukemia
  GI50: 3.63 µM
  TGI: 9.92 µM
CAKI-1 renal
  GI50: 3.37 µM
  TGI: 7.7 µM
LOX IMVI melanoma
  GI50: 2.51 µM
  TGI: 4.82 µM
SK-MEL-28 melanoma
  GI50: 2.54 µM
  TGI: 4.9 µM
A549 NSCLC
  GI50: 5.27 µM
  TGI: > 16.7 µM
